From the supplement of paper PMC10920090

How the values were obtained:
[1] = system: MDA-MB-231; assay: drug sensitivity score (DSS), cytotoxicity CellTox Green; higher = more cytotoxic; extreme values may be limits of the assay; details: 72 h
[2] = system: MDA-MB-231; assay: drug sensitivity score (DSS), cell viability CellTiter-Glo; higher = more sensitive; extreme values may be limits of the assay; details: 72 h
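Wherever drug sensitivity score (DSS), cytotoxicity CellTox Green is given: DSS summarises each dose–response curve by combining IC50, EC50, maximal inhibition and efficacy across drug concentrations.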

Structure (SMILES)	drug sensitivity score ([1]; shRNA: shPPFIA1_1) [DSS]	drug sensitivity score ([1]; shRNA: shScramble) [DSS]	drug sensitivity score ([2]; shRNA: shPPFIA1_1) [DSS]	drug sensitivity score ([2]; shRNA: shScramble) [DSS]
Nc1nc(Cl)nc2c1ncn2[C@H]1C[C@H](O)[C@@H](CO)O1 [Cladribine]	0	0	0	3.3
Nc1nc(Cl)nc2c1ncn2[C@@H]1O[C@H](CO)[C@@H](O)[C@@H]1F [Clofarabine]	0	0	0	6.5
CCN(CC)CCOc1ccc(C(=C(Cl)c2ccccc2)c2ccccc2)cc1 [Clomifene]	7.9	6.1	3.7	5.1
O=C(c1ccc(F)c(F)c1Nc1ccc(I)cc1F)N1CC(O)([C@@H]2CCCCN2)C1 [Cobimetinib]	4.4	12	1.6	12.8
COc1c(OCCCN2CCOCC2)ccc2c1N=C(NC(=O)c1cnc(N)nc1)N1CCN=C21 [Copanlisib]	10.2	0	0	6.3
CC1(COc2ccc3c(c2)ncn3-c2ccc3cccc(N4CCC(N)CC4)c3n2)COC1 [Crenolanib]	7.2	4.6	5.3	9.4
C[C@@H](Oc1cc(-c2cnn(C3CCNCC3)c2)cnc1N)c1c(Cl)ccc(F)c1Cl [Crizotinib]	0	0	0.1	0
O=P1(N(CCCl)CCCl)NCCCO1 (centres undefined) [Cyclophosphamide]	0	0	0	0
Nc1ccn([C@@H]2O[C@H](CO)[C@@H](O)[C@@H]2O)c(=O)n1 [Cytarabine]	0	0	0	1.6
CC(C)(C)c1nc(-c2cccc(NS(=O)(=O)c3c(F)cccc3F)c2F)c(-c2ccnc(N)n2)s1 [Dabrafenib]	0.9	0.9	0	0
CN(C)/N=N/c1[nH]cnc1C(N)=O [Dacarbazine]	0	0	0	0
COc1cc2ncnc(Nc3ccc(F)c(Cl)c3)c2cc1NC(=O)/C=C/CN1CCCCC1 [Dacomitinib]	0	4.7	0.9	0
Cc1c2oc3c(C)ccc(C(=O)N[C@@H]4C(=O)N[C@H](C(C)C)C(=O)N5CCC[C@H]5C(=O)N(C)CC(=O)N(C)[C@@H](C(C)C)C(=O)O[C@@H]4C)c3nc-2c(C(=O)N[C@@H]2C(=O)N[C@H](C(C)C)C(=O)N3CCC[C@H]3C(=O)N(C)CC(=O)N(C)[C@@H](C(C)C)C(=O)O[C@@H]2C)c(N)c1=O [Dactinomycin]	14.9	12.4	14.1	25.9
CO[C@@H](C(=O)N1Cc2[nH]nc(NC(=O)c3ccc(N4CCN(C)CC4)cc3)c2C1)c1ccccc1 [Danusertib]	0	0.2	0	0
O=C(/C=C/c1cccnc1)NCCCCC1CCN(C(=O)c2ccccc2)CC1 [Daporinad]	0	0	24.6	26.8
CCN(CC)CCN(Cc1ccc(-c2ccc(C(F)(F)F)cc2)cc1)C(=O)Cn1c(SCc2ccc(F)cc2)nc(=O)c2c1CCC2 [Darapladib]	13.1	0	0	0

Structure (SMILES)	drug sensitivity score ([1]; shRNA: shPPFIA1_1) [DSS]	drug sensitivity score ([1]; shRNA: shScramble) [DSS]	drug sensitivity score ([2]; shRNA: shPPFIA1_1) [DSS]	drug sensitivity score ([2]; shRNA: shScramble) [DSS]
Cc1nc(Nc2ncc(C(=O)Nc3c(C)cccc3Cl)s2)cc(N2CCN(CCO)CC2)n1 [Dasatinib]	0	0	0	9.3
COc1cccc2c1C(=O)c1c(O)c3c(c(O)c1C2=O)C[C@@](O)(C(C)=O)C[C@@H]3O[C@H]1C[C@H](N)[C@H](O)[C@H](C)O1 [Daunorubicin]	0	0	2.8	7.5
Nc1ncn([C@H]2C[C@H](O)[C@@H](CO)O2)c(=O)n1 [Decitabine]	0	0	0.9	1
CC(=O)N(O)CCCCCNC(=O)CCC(=O)N(O)CCCCCNC(=O)CCC(=O)N(O)CCCCCN [Deferoxamine]	0	0	2.5	2.7
C[C@@H]1C[C@H]2[C@@H]3CCC4=CC(=O)C=C[C@]4(C)[C@@]3(F)[C@@H](O)C[C@]2(C)[C@@]1(O)C(=O)CO [Dexamethasone]	0	0	0	0
CCc1cnn2c(NCc3ccc[n+]([O-])c3)cc(N3CCCC[C@H]3CCO)nc12 [Dinaciclib]	15.4	8.8	13.8	18.7
CCN(CC)C(=S)SSC(=S)N(CC)CC [Disulfiram]	6.4	7	6.5	14.3
Cc1ccc(-n2nc(C(C)(C)C)cc2NC(=O)Nc2ccc(OCCN3CCOCC3)c3ccccc23)cc1 [Doramapimod]	0	0	0	2.5
CN1CCN(c2ccc3nc(-c4c(N)c5c(F)cccc5[nH]c4=O)[nH]c3c2)CC1 [Dovitinib]	0	0	0	0
COc1cccc2c1C(=O)c1c(O)c3c(c(O)c1C2=O)C[C@@](O)(C(=O)CO)C[C@@H]3O[C@H]1C[C@H](N)[C@H](O)[C@H](C)O1 [Doxorubicin]	0	0	1.4	6.8
C[C@H](Nc1ncnc2nc[nH]c12)c1cc2cccc(Cl)c2c(=O)n1-c1ccccc1 [Duvelisib]	0	3.3	3	0
Cc1cc(Nc2cc(N3CCN(C)CC3)nc(/C=C/c3ccccc3)n2)n[nH]1 [ENMD-2076]	2	0.9	3.8	8.8
Cc1cc(C)c(CNC(=O)c2cc(-c3ccc(CN4CCOCC4)cc3)cc3c2cnn3C2CCCC2)c(=O)[nH]1 [EPZ-5687]	0	0	3.5	0
COC(=O)N[C@@H](C)CNc1nccc(-c2cn(C(C)C)nc2-c2cc(Cl)cc(NS(C)(=O)=O)c2F)n1 [Encorafenib]	0	0	0	1.3
Nc1ccccc1NC(=O)c1ccc(CNC(=O)OCc2cccnc2)cc1 [Entinostat]	3.9	0.2	0.3	4.5
